The values below come from patent US9145399B2, “Substituted bicyclic triazole derivatives as gamma secretase modulators” (Janssen Pharmaceuticals, Inc., priority 2010, dated 2015).

Some results are limits rather than exact numbers.

In series [1] the test system is Aβtotal. Put plainly: In vivo efficacy: Aβtotal in brain of non-transgenic mice after single oral dose (ELISA). The arrangement: species or system mouse. Conditions: Mus musculus; dose 30 mg/kg oral dosing; soluble brain fraction, animals sacrificed after 4 h; untreated animals (Ctrl) set at 100; read-out: Aβtotal (% vs Ctrl)_Mean. The source says:
(§1) To determine whether acute administration of an Aβ42 lowering agent would reduce Aβ42 levels in vivo, non-transgenic rodents, e.g. mice or rats were used. Animals treated with the Aβ42 lowering agent were examined and compared to those untreated or treated with vehicle and brain levels of soluble Aβ42 and total Aβ were quantitated by standard techniques, for example, using ELISA. Treatment periods varied from hours (h) to days and were adjusted based on the results of the Aβ42 lowering once a time course of onset of effect could be established.
(§2) A typical protocol for measuring Aβ42 lowering in vivo is shown but it is only one of many variations that could be used to optimize the levels of detectable Aβ. For example, Aβ42 lowering compounds were formulated in 20% of Captisol® (a sulfobutyl ether of β-cyclodextrin) in water or 20% hydroxypropyl β cyclodextrin. The Aβ42 lowering agents were administered as a single oral dose or by any acceptable route of administration to overnight fasted animals. After 4 h, the animals were sacrificed and Aβ42 levels were analysed.
(§3) Blood was collected by decapitation and exsanguinations in EDTA-treated collection tubes. Blood was centrifuged at 1900 g for 10 minutes (min) at 4° C. and the plasma recovered and flash frozen for later analysis. The brain was removed from the cranium and hindbrain. The cerebellum was removed and the left and right hemisphere were separated. The left hemisphere was stored at −18° C. for quantitative analysis of test compound levels. The right hemisphere was rinsed with phosphate-buffered saline (PBS) buffer and immediately frozen on dry ice and stored at −80° C. until homogenization for biochemical assays.
(§4) Mouse brains from non-transgenic animals were resuspended in 8 volumes of 0.4% DEA (diethylamine)/50 mM NaCl containing protease inhibitors (Roche-11873580001 or 04693159001) per gram of tissue, e.g. for 0.158 g brain, add 1.264 ml of 0.4% DEA. All samples were homogenized in the FastPrep-24 system (MP Biomedicals) using lysing matrix D (MPBio #6913-100) at 6 m/s for 20 seconds. Homogenates were centrifuged at 221.300×g for 50 min. The resulting high speed supernatants were then transferred to fresh eppendorf tubes. Nine parts of supernatant were neutralized with 1 part 0.5 M Tris-HCl pH 6.8 and used to quantify Aβtotal and Aβ42.
(§5) To quantify the amount of Aβtotal and Aβ42 in the soluble fraction of the brain homogenates, Enzyme-Linked-Immunosorbent-Assays were used. Briefly, the standards (a dilution of synthetic Aβ1-40 and Aβ1-42, Bachem) were prepared in 1.5 ml Eppendorf tube in Ultraculture, with final concentrations ranging from 10000 to 0.3 pg/ml. The samples and standards were co-incubated with HRPO-labelled N-terminal antibody for Aβ42 detection and with the biotinylated mid-domain antibody 4G8 for Aβtotal detection. 50 μl of conjugate/sample or conjugate/standards mixtures were then added to the antibody-coated plate (the capture antibodies selectively recognize the C-terminal end of Aβ42, antibody JRF/cAβ42/26, for Aβ42 detection and the N-terminus of Aβ, antibody JRF/rAβ/2, for Aβtotal detection). The plate was allowed to incubate overnight at 4° C. in order to allow formation of the antibody-amyloid complex. Following this incubation and subsequent wash steps the ELISA for Aβ42 quantification was finished by addition of Quanta Blu fluorogenic peroxidase substrate according to the manufacturer's instructions (Pierce Corp., Rockford, Il). A reading was performed after 10 to 15 min (excitation 320 nm/emission 420 nm).
For Aβtotal detection, a Streptavidine-Peroxidase-Conjugate was added, followed 60 min later by an additional wash step and addition of Quanta Blu fluorogenic peroxidase substrate according to the manufacturer's instructions (Pierce Corp., Rockford, Ill). A reading was performed after 10 to 15 min (excitation 320 nm/emission 420 nm). […]

The subject of series [2] is Aβtotal. Nature of the series: Screening for γ-secretase-modulating activity in SKNBE2 cells carrying APP 695 wild type: Aβtotal in cell supernatant (Alphalisa). In kind it is cell-based. Conditions: Homo sapiens, overnight incubation. Summed up:
(§6)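 SKNBE2 cells expressing wild-type APP695 were incubated overnight at 37° C with test compound at several concentrations. Aβ42 and Aβtotal in supernatant were measured by AlphaLISA sandwich immunoassays. IC50 came from 4-parameter non-linear fits of percent of compound-free control versus log concentration.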

Series [3] has as its system Aβ42. Nature of the series: Screening for γ-secretase-modulating activity in SKNBE2 cells carrying APP 695 wild type: Aβ42 in cell supernatant (Alphalisa). Conditions: Homo sapiens, SKNBE2, SKNBE2 cells carrying APP 695 wild type, overnight incubation. In kind it is cell-based. The method, boiled down: as §6
Series [4] deals with Aβ42. Put plainly: In vivo efficacy: Aβ42 lowering in brain of non-transgenic mice after single oral dose (ELISA). The arrangement: species or system mouse. Conditions: Mus musculus; dose 30 mg/kg oral dosing; soluble brain fraction, animals sacrificed after 4 h; untreated animals (Ctrl) set at 100; read-out: Aβ42 (% vs Ctrl) _Mean.
From the text: as §1, §2, §3, §4, §5
In this model at least 20% Aβ42 lowering compared to untreated animals would be advantageous.
The results are shown in Table 4 (dose 30 mg/kg oral dosing) (value for untreated animals as control (Ctrl) was set at 100): […]

Consider `COc1cc(Nc2nc3n(n2)CCCC3c2ccccc2Cl)ccc1-c1ccnc(C)c1` (racemic) [Compound 66, 8-(2-chlorophenyl)-5,6,7,8-tetrahydro-N-[3-methoxy-4-(2-methyl-4-pyridinyl)phenyl]-[1,2,4]triazolo[1,5-a]pyridin-2-amine], for which the results for the response vs control in vivo at 30 mg/kg with Aβtotal [1] and with Aβ42 [4] were 92% and 54%, respectively. For the same molecule, the IC50 was 9120 nM in the series on Aβtotal [2] and 35 nM in the series with Aβ42 [3].

Regarding `COc1cc(Nc2nc3n(n2)CCN(C)C3c2ccccc2C(F)(F)F)ccc1-n1cnc(C)c1` (stereo not drawn) [Compound 13, 5,6,7,8-tetrahydro-N-[3-methoxy-4-(4-methyl-1H-imidazol-1-yl)phenyl]-7-methyl-8-[2-(trifluoromethyl)phenyl]-[1,2,4]triazolo[1,5-a]pyrazin-2-amine], the response vs control in vivo at 30 mg/kg came to 100% in the series with Aβtotal [1] and 93% in the series with Aβ42 [4]. Moreover, the IC50 is 7760 nM in the series with Aβtotal [2] and 9 nM in the series on Aβ42 [3].

As for `COc1cc(Nc2nc3n(n2)CCN(C(C)=O)C3c2ccccc2C(F)(F)F)ccc1-n1cnc(C)c1` (stereo not drawn) [Compound 14, 7-acetyl-5,6,7,8-tetrahydro-N-[3-methoxy-4-(4-methyl-1H-imidazol-1-yl)phenyl]-8-[2-(trifluoromethyl)phenyl]-[1,2,4]triazolo[1,5-a]pyrazin-2-amine], the response vs control in vivo at 30 mg/kg in the series on Aβtotal [1] is 119%; in the series on Aβ42 [4] it was 101%. Further, the IC50 was above 10000 nM in the series with Aβtotal [2] and 66 nM with Aβ42 [3].

Consider `Cc1cc(-c2ccc(Nc3nc4n(n3)CCCC4c3ccccc3C(F)(F)F)cc2)ccn1` (stereo not drawn) [Compound 42, 5,6,7,8-tetrahydro-N-[4-(2-methyl-4-pyridinyl)phenyl]-8-[2-(trifluoromethyl)phenyl]-[1,2,4]triazolo[1,5-a]pyridin-2-amine], for which the response vs control in vivo at 30 mg/kg in the series with Aβtotal [1] was determined as 83%; in the series on Aβ42 [4] it was 58%. The results for the IC50 in the series with Aβtotal [2] and in the series on Aβ42 [3] were above 10000 nM and 23 nM, respectively.

Take `COc1cc(Nc2nc3n(n2)CCCC3c2ccccc2C(F)(F)F)ccc1-c1ccnc(C)c1` (stereo not drawn) [Compound 43, 5,6,7,8-tetrahydro-N-[3-methoxy-4-(2-methyl-4-pyridinyl)phenyl]-8-[2-(trifluoromethyl)phenyl]-[1,2,4]triazolo[1,5-a]pyridin-2-amine]: the response vs control in vivo at 30 mg/kg in the series on Aβtotal [1] was determined as 87%; in the series with Aβ42 [4], 71%. The IC50 in the series with Aβtotal [2] amounted to 7080 nM; with Aβ42 [3], 16 nM.

Regarding `FC(F)(F)c1ccccc1C1CCCn2nc(Nc3ccc(-c4cccnc4)cc3)nc21` (stereo not drawn) [Compound 46, 5,6,7,8-tetrahydro-N-[4-(3-pyridinyl)phenyl]-8-[2-(trifluoromethyl)phenyl]-[1,2,4]triazolo[1,5-a]pyridin-2-amine], the response vs control in vivo at 30 mg/kg with Aβtotal [1] came out at 98%; in the series on Aβ42 [4], 61%. Moreover, the IC50 in the series with Aβtotal [2] is above 10000 nM; in the series on Aβ42 [3], 5250 nM.

Regarding `COc1cc(C2CCCn3nc(Nc4ccc(-c5ccnc(C)c5)cc4)nc32)ccc1F` (stereo not drawn) [Compound 106, 8-(4-fluoro-3-methoxyphenyl)-5,6,7,8-tetrahydro-N-[4-(2-methyl-4-pyridinyl)phenyl]-[1,2,4]triazolo[1,5-a]pyridin-2-amine], the melting point amounted to 150.6 °C. In the series on Aβtotal [2], the IC50 is above 15000 nM. In the series on Aβ42 [3], 40 nM corresponded to half-maximal inhibition (IC50).

Turning to `COc1cc(C2CCCn3nc(Nc4ccc(-c5ccnc(C)c5)c(OC)c4)nc32)ccc1F` (stereo not drawn) [Compound 107, 8-(4-fluoro-3-methoxyphenyl)-5,6,7,8-tetrahydro-N-[3-methoxy-4-(2-methyl-4-pyridinyl)phenyl]-[1,2,4]triazolo[1,5-a]pyridin-2-amine], the melting point turned out to be 147.4 °C. The half-inhibitory concentration (IC50) with Aβtotal [2] was above 15000 nM. The molecule further returned an IC50 with Aβ42 [3] of 32 nM.

In the case of `COc1cc(Nc2nc3n(n2)CCCC3c2c(F)cccc2Cl)ccc1-c1ccnc(C)c1` (stereo not drawn) [Compound 110, 8-(2-chloro-6-fluorophenyl)-5,6,7,8-tetrahydro-N-[3-methoxy-4-(2-methyl-4-pyridinyl)phenyl]-[1,2,4]triazolo[1,5-a]pyridin-2-amine], the melting point turned out to be 174 °C. Besides, the IC50 with Aβtotal [2] is above 10000 nM. The IC50 in the series on Aβ42 [3] was found to be 50 nM.

For `Cc1cc(-c2ccc(Nc3nc4n(n3)CCCC4c3cc(C(F)(F)F)ccc3F)cc2)ccn1` (stereo not drawn) [Compound 114, 8-[2-fluoro-5-(trifluoromethyl)phenyl]-5,6,7,8-tetrahydro-N-[4-(2-methyl-4-pyridinyl)phenyl]-[1,2,4]triazolo[1,5-a]pyridin-2-amine], the melting point stood at 194.4 °C. For the same molecule, the IC50 in the series with Aβtotal [2] was above 10000 nM. The molecule also displayed an IC50 in the series on Aβ42 [3] of 41 nM.

As to `Cc1cc(-c2ccc(Nc3nc4n(n3)CCCC4c3c(F)cccc3Cl)cc2)ccn1` (stereo not drawn) [Compound 116, 8-(2-chloro-6-fluorophenyl)-5,6,7,8-tetrahydro-N-[4-(2-methyl-4-pyridinyl)phenyl]-[1,2,4]triazolo[1,5-a]pyridin-2-amine], the melting point stood at 234.4 °C. In the series on Aβtotal [2], this molecule registered an IC50 above 10000 nM. For the same molecule, the IC50 in the series on Aβ42 [3] is 71 nM.

`COc1cc(Nc2nc3n(n2)CCCC3c2cc(C(F)(F)F)ccc2C)ccc1-c1ccnc(C)c1` (stereo not drawn) [Compound 151, 5,6,7,8-tetrahydro-N-[3-methoxy-4-(2-methyl-4-pyridinyl)phenyl]-8-[2-methyl-5-(trifluoromethyl)phenyl]-[1,2,4]triazolo[1,5-a]pyridin-2-amine]: the melting point was 146.8 °C. In the series on Aβtotal [2], the IC50 is 7080 nM. The 50% inhibitory concentration (IC50) in the series with Aβ42 [3] came to 31 nM.

Turning to `COc1cc(Nc2nc3n(n2)CCCC3c2cc(C(F)(F)F)ccc2F)ccc1-c1ccnc(C)c1` (stereo not drawn) [Compound 182, 8-[2-fluoro-5-(trifluoromethyl)phenyl]-5,6,7,8-tetrahydro-N-[3-methoxy-4-(2-methyl-4-pyridinyl)phenyl]-[1,2,4]triazolo[1,5-a]pyridin-2-amine], the melting point is 173.1 °C. The concentration for half-maximal inhibition (IC50) in the series on Aβtotal [2] was above 10000 nM. In the series with Aβ42 [3], this molecule displayed a concentration for half-maximal inhibition (IC50) of 44 nM.

Take `COc1ccc(F)c(C2CCCn3nc(Nc4ccc(-c5ccnc(C)c5)cc4)nc32)c1` (stereo not drawn) [Compound 183, 8-(2-fluoro-5-methoxyphenyl)-5,6,7,8-tetrahydro-N-[4-(2-methyl-4-pyridinyl)phenyl]-[1,2,4]triazolo[1,5-a]pyridin-2-amine]: the melting point was 204.6 °C. For the same molecule, the IC50 in the series with Aβtotal [2] was above 10000 nM. The IC50 with Aβ42 [3] came to 41 nM.

For `COc1ccc(F)c(C2CCCn3nc(Nc4ccc(-c5ccnc(C)c5)c(F)c4)nc32)c1` (stereo not drawn) [Compound 184, 8-(2-fluoro-5-methoxyphenyl)-N-[3-fluoro-4-(2-methyl-4-pyridinyl)phenyl]-5,6,7,8-tetrahydro-[1,2,4]triazolo[1,5-a]pyridin-2-amine], the melting point is 221.5 °C. This molecule also returned an IC50 with Aβtotal [2] above 10000 nM. The molecule further came in with a 50% inhibitory concentration (IC50) with Aβ42 [3] of 23 nM.
